Patent US20110034434A1, “PRODRUGS OF FUSED HETEROCYCLIC INHIBITORS OF D-AMINO ACID OXIDASE” (SEPRACOR INC., priority 2009, published 2011)

Tests used:
D-serine = assay: PK-PD evaluation in rats: D-serine levels in cerebellum after oral dosing; type: in vivo; conditions: rat cerebellum, 6 hours after PO dosing, dose normalized to 10 mg/kg of the acid; mean ± spread (n)
Procedure: Rats (Harlan male Sprague) (N=3) were dosed orally with an amount of test compound, suspended in 45% (w/v) hydroxy-β-cyclodextrin vehicle, dose normalized to 10 mg/kg of the corresponding carboxylic acid. Additional male cannulated rats (N=3) were dosed orally with the parent carboxylic acid, suspended in 45% (w/v) hydroxy-β-cyclodextrin vehicle, at 10 mg/kg. Animals were sacrificed at pre-determined time points (e.g., 0.5, 2 and/or 6 hours post administration) with an N=3 at each time point. At sacrifice, trunk blood was collected into tubes containing potassium EDTA, which were then centrifuged to permit isolation of plasma. The cerebellum was dissected from each animal. Plasma and cerebellum samples were stored at −80° C. until samples were analyzed using a SCIEX API2000 or SCIEX API5000 LC/MS/MS. Samples were analyzed for the amount of corresponding parent acid, D-serine, and/or the amount of test compound.
Conversion of test compounds to 4H-furo[3,2-b]pyrrole-5-carboxylic acid (“acid”; 77) in rats was evaluated according to General Procedure 12. 4H-furo[3,2-b]pyrrole-5-carboxylic acid and D-serine levels in plasma and cerebellum were measured. Animals were sacrificed at 6 hours post administration. In Table 6, “[D-serine] cerebellum” refers to D-serine levels, in nmol/g, in the rat cerebellum. In Table 6, “[acid] cerebellum” refers to the concentration, in μM, of the 4H-furo[3,2-b]pyrrole-5-carboxylic acid in the cerebellum. In Table 6, “[acid] plasma” refers to the concentration, in μM, of the 4H-furo[3,2-b]pyrrole-5-carboxylic acid in the plasma. The row labeled “acid”, denotes the data obtained from dosing 4H-furo[3,2-b]pyrrole-5-carboxylic acid. The row labeled “vehicle” denotes the data obtained from dosing vehicle, and the remaining row in the table denote the data obtained from dosing the test compounds.

[1] = Hydrolysis rate of test compounds in pH 7.4 and 2.0 aqueous solution; type: physicochemical; conditions: HPLC; for Hydrolysis rate at pH 7.4: 0.05 M sodium phosphate buffer pH 7.4, over 6 hours; for Hydrolysis rate at pH 2.0: water adjusted with phosphoric acid to pH 2.0, over 2 hours
Procedure: 10 mM DMSO solutions of test compounds were diluted with a 0.05 M sodium phosphate buffer (pH 7.4) or water adjusted with phosphoric acid to pH 2.0, with a final concentration of 0.013 mg/mL. Samples were analyzed over either 2 or 6 hours, by HPLC.
The amount of test compound and the corresponding acid were determined. The rate of conversion of the test compound was calculated based on formation of the corresponding acid and loss of parent.
The rate of hydrolysis of test compounds to 4H-furo[3,2-b]pyrrole-5-carboxylic acid was evaluated in pH 7.4 aqueous solution over 6 hours, and in pH 2.0 aqueous solution over 2 hours, according to General Procedure 14.

Structure (SMILES)	Hydrolysis rate at pH 7.4 [1]	Hydrolysis rate at pH 2.0 [1]	[D-serine] cerebellum (D-serine)
CN(C)C(=O)COC(=O)c1cc2occc2[nH]1 [compound 20, 2-(dimethylamino)-2-oxoethyl 4H-furo[3,2-b]pyrrole-5-carboxylate]	No hydrolysis	No hydrolysis	19 ± 0.8(6) nmol/g
O=C(OCC(=O)N1CCOCC1)c1cc2occc2[nH]1 [compound 21, 2-morpholino-2-oxoethyl 4H-furo[3,2-b]pyrrole-5-carboxylate]	No hydrolysis	No hydrolysis	19 ± 1.0(6) nmol/g

Continued, in another order:

Hydrolysis rate at pH 7.4 [1]	Hydrolysis rate at pH 2.0 [1]	Structure (SMILES)	[D-serine] cerebellum (D-serine)
No hydrolysis	No hydrolysis	O=C(OCCN1CCOCC1)c1cc2occc2[nH]1 [compound 30, 2-morpholinoethyl 4H-furo[3,2-b]pyrrole-5-carboxylate]	14 ± 1.2(3) nmol/g
3.46%/hr		CC(OC(=O)c1cc2occc2[nH]1)OC(=O)C(C)C (stereo not shown) [compound 35, 1-(isobutyryloxy)ethyl 4H-furo[3,2-b]pyrrole-5-carboxylate]	16 ± 0.9(3) nmol/g
0.21%/hr		CC(OC(=O)OC1CCCCC1)OC(=O)c1cc2occc2[nH]1 (stereo not shown) [compound 39, 1-(cyclohexyloxycarbonyloxy)ethyl 4H-furo[3,2-b]pyrrole-5-carboxylate]	17 ± 2.6(3) nmol/g
0.20%/hr	No hydrolysis	Cc1oc(=O)oc1COC(=O)c1cc2occc2[nH]1 [compound 72, (5-methyl-2-oxo-1,3-dioxol-4-yl)methyl 4H-furo[3,2-b]pyrrole-5-carboxylate]	21 ± 3.5(9) nmol/g
